Seven molecules from US20080200544A1, “Oil agent and lubricant agent, moisturizer and external preparation composition containing the same” (priority 2007, published 2008) can be followed below.

The nature of series [1]: Viscosity, Brookfield viscometer DV-II+ (Spindle No. 2, 12 rpm, 25° C.). The format is physicochemical. Particulars: for Viscosity: 25° C.; for Feeling of use: class assigned from viscosity at 25° C.
Description: In this specification, “viscosity” refers to a value of viscosity measured using a Brookfield viscometer DV-II+ (Spindle No. 2, 12 rpm, 25° C.).
In these examples, viscosity was measured using a Brookfield viscometer DV-II+ (Spindle No. 2, 12 rpm, 25° C.).
A short description of series [2]: Water solubility evaluation. Particulars: in water.
A short description of series [3]: Oil solubility evaluation in KAK99. The conditions noted are these: in KAK99 (isononyl isononanoate).

Where a name gives a salt, the structure may show the parent alone.

Regarding `CCOCCOCCOC(=O)CCCCC(=O)OCCOCCOCC` [Example 3, dicarbitol adipate], in series [1], the Viscosity amounted to 20 mPa · s and the Feeling of use entry is “light”.

With `CCOCCOCCOC(=O)CC(O)C(=O)OCCOCCOCC` (stereo not drawn) [Example 2, dicarbitol malate], the Water solubility result in series [2] is “◯ (Dissolved in water up to 10% by mass)”. In series [1], this molecule displayed a Viscosity of 45 mPa · s. In addition, the Oil solubility entry in series [3] is listed as “Δ (Dissolved in KAK99 up to 5% by mass)”.

The molecule `CCOCCOCCOCCOC(=O)CCC(=O)OCCOCCOCCOCC` [Example 5, di(triethylene glycol monoethyl ether) succinate] showed a Viscosity in series [1] of 32.5 mPa · s. Besides, in series [3], the Oil solubility result is “Δ (Dissolved in KAK99 up to 5% by mass)”.

Regarding “dicarbitol isononanoate [compound 1, reference compound]”, in series [1], the Viscosity is reported as 5 mPa · s and the Feeling of use entry is on record as “light”.

As for `CCOCCOCCOC(=O)CCC(=O)OCCOCCOCC` [Example 1, dicarbitol succinate], in series [1], the Viscosity stood at 12.5 mPa · s and the Feeling of use entry was “light”.

As to `CCOCCOC(=O)CCC(=O)OCCOCC` [Example 6, di(monoethylene glycol monoethyl ether) succinate], in series [2], the Water solubility entry is on record as “Δ (Dissolved in water up to 5% by mass)”. Moreover, in series [1], the Viscosity is 10.0 mPa · s and the Feeling of use entry is reported as “light”.

In the case of `CCOCCOCCOC(=O)C(O)C(O)C(=O)OCCOCCOCC` (stereo not drawn) [Example 4, dicarbitol tartrate], in series [1], the Viscosity is on record as 207 mPa · s.
